In patent publication US20050181034A1, “Formulation of liposomal derivatives of phenylalanine” (WILEX AG, priority 2002, published 2005):
Where two headings read alike, the source gives them in different places.

What was measured:
[1] = Concentration in plasma, bile and organs after s.c. administration in rats; assay type: in vivo; conditions: rat; for concentration at 24 h: female, Wistar, sc
Experimental: (§1) Female wistar rats, 240-300 g body weight (Charles River-Wiga, Sulzfeld), were treated with the active ingredient WX-UK1 in the form of an aqueous solution or with the liposomal formulations 1-4 described in Example 1. The animals each received 1 dose/day over a period of 10 days. The administrations took place in the region of the flank (between shoulder and rear limbs) so that the animals were unable to reach the injection site with their paws. The injection sites were approx. 1 cm apart, no site being injected more than once. The first five injections took place on the left side, and the second five injections on the right side. The dose was usually 3 mg of active ingredient/kg of body weight, i.e. 0.9 mg of active ingredient was administered for an average body weight of 300 g. Radiolabeled active ingredient (3H-WX-UK1) was administered in some cases.
(§2) 24 h after the last injection, the animals were anaesthetized (ethylurethane, 1.4 g/kg i.p.), and citrated blood was obtained from the retroorbital venous plexus; citrated plasma was obtained by centrifugation at 1200×g for 10 min. The bile duct was then dissected, and bile was obtained for 15 min. Subsequently, the areas of skin at the injection sites were examined and the growth findings on dissection were recorded.
The animals were then sacrificed, and various organs (heart, kidney, liver, spleen) were dissected. The active ingredient content in the plasma, bile and organs was determined by HPLC [standard method using Nucleosil 7 C18 columns (Macherey-Nagel, Düren), acetonitrile/water/perchloric acid 30/70/0.04, 1 ml/min] after prepurification using Chromabond C18 solid-phase extraction columns (Macherey-Nagel, Duren). When ^3H-WX-UK1 was used, the active ingredient concentration was determined immediately after lyophilization of the samples by measuring the radioactivity in a liquid scintillation counter.

[2] = Tolerability of s.c. administration in rats (behavior, palpation, dissection, histology scores); assay type: in vivo; set-up: key to Behavior of the animals (score): 0: normal; slight scratching in 1st hour; 2: scratching and signs of pain; 3: still marked impairment after 2 h; key to Palpation consecutive (score): 0: unremarkable; 1: slight, isolated thickenings/indurations; 2: persistent thickenings/indurations, coalescing; 3: additional lesions, inflammations; conditions: rat
Experimental: as §1
The animals were weighed before each injection and observed for 2 h after each injection, and before each further injection the previous injection sites were palpated. The behavior of the animals and the palpation findings were recorded.
The following score was used to evaluate the observed impairments:
Behavior of the animals after the injection (2 h)
Consecutive Palpation Findings
as §2
The following score was used to evaluate the growth changes observed:
Final Observations, Growth Findings during Dissection
Skin samples were dissected from the regions of the injections, fixed in formalin and examined histologically (hematoxylin/eosin stain). The following score was used to evaluate the histologically visible changes: […]

[3] = s.c. 3 mg/kg 1 dose/day 10 days, 24 h after last injection, single experiment, listed as Control, 3 mg/kg

Molecule CCOC(=O)N1CCN(C(=O)[C@H](Cc2cccc(C(=N)N)c2)NS(=O)(=O)c2c(C(C)C)cc(C(C)C)cc2C(C)C)CC1 [WX-UK1, Nα-(2,4,6-triisopropylphenylsulfonyl)-3-amidino-(L)-phenylalanine 4-ethoxycarbonylpiperazide] has a concentration at 24 h ([1]; bile, 3 mg/kg, s.c. 3 mg/kg 1 dose/day 10 days, 24 h after last injection, single experiment, read-out: Concentration Bile) of 3100 ng/mL, a concentration at 24 h ([1]; heart, 3 mg/kg, s.c. 3 mg/kg 1 dose/day 10 days, 24 h after last injection, single experiment, read-out: Organ content Heart) of 840 ng/g and a concentration at 24 h ([1]; kidney, 3 mg/kg, s.c. 3 mg/kg 1 dose/day 10 days, 24 h after last injection, single experiment, read-out: Organ content Kidney) of 2300 ng/g. For the same molecule, the concentration at 24 h ([1]; liver, 3 mg/kg, s.c. 3 mg/kg 1 dose/day 10 days, 24 h after last injection, single experiment, read-out: Organ content Liver) was 180 ng/g, the concentration at 24 h ([1]; plasma, 3 mg/kg, s.c. 3 mg/kg 1 dose/day 10 days, 24 h after last injection, single experiment, read-out: Concentration Plasma) was under 50 ng/mL and the concentration at 24 h ([1]; spleen, 3 mg/kg, s.c. 3 mg/kg 1 dose/day 10 days, 24 h after last injection, single experiment, read-out: Organ content Spleen) was 690 ng/g. For the same molecule, the “Organ content Heart” value [1, 3] was 1.0 µg/g, the “Organ content Kidney” value [1, 3] was 2.5 µg/g and the “Organ content Liver” value [1, 3] was 0.36 µg/g. The “Organ content Spleen” value [1, 3] was 0.65 µg/g, the “Concentration in the plasma” value ([1]; s.c., determined only by using 3H-WX-UK1) was under 100 ng/mL and the “Behavior of the animals (score)” value ([2]; 2 h after s.c. injection) was 1. For the same molecule, the “Impression final (score, findings during dissection)” value ([2]; 24 h after last injection) was 2.5, the “Skin histology (FIG. 1, FIG. 3, magnification 25x)” value ([2]; after s.c. administration) was “strong inflammatory reaction” and the “Palpation consecutive (score)” value ([2]; previous s.c. injection sites) was 1. For the same molecule, the “Score (total impairment), Mean” value ([2]; s.c., mean of the two experiments) was “Mean = 7.5” and the “Score (total impairment of the animals)” value ([2]; s.c., sum of the part scores) was 7.5.
